Measured values as given in BindingDB's records for doi:10.1021/acs.jmedchem.9b00882 (Shenyang Pharmaceutical University, 2019).
Starred links: 1 amine or outer side, 2 acyl side, 3 side chain; linkers in the order of their positions; H or OH if unused. Positions of bridges follow the written chain, without caps; N, C: chain ends. Non-standard residues stand in square brackets, D forms with d. Residues, ends and D or L forms follow the SMILES beside them. ξ: configuration not given here. mXylylene = c1cc(C[*:1])cc(C[*:2])c1; ξhCys = NC(CCS)C(=O)O

Experiments:
[1] = Inhibition of HIV1 gp41-induced cell-cell fusion between viral envelope expressing human HL2/3 cells to CD4/CCR5 receptor expressing TZM-bl cells after 6 hrs by luciferase assay
[2] = Inhibition of HIV1 gp41-induced cell-cell fusion between viral envelope expressing human HL2/3 cells to CD4/CCR5 receptor expressing TZM-bl cells at 2:1 ratio of hCS6ERE to compound incubated for 6 hrs by luciferase reporter gene assay
[3] = Inhibition of HIV1 gp41-induced cell-cell fusion between viral envelope expressing human HL2/3 cells to CD4/CCR5 receptor expressing TZM-bl cells at 4:1 ratio of hCS6ERE to compound incubated for 6 hrs by luciferase reporter gene assay
[4] = Inhibition of HIV1 gp41-induced cell-cell fusion between viral envelope expressing human HL2/3 cells to CD4/CCR5 receptor expressing TZM-bl cells at 1:1 ratio of hCS6ERE to compound incubated for 6 hrs by luciferase reporter gene assay
[5] = Inhibition of HIV1 gp41-induced cell-cell fusion between viral envelope expressing human HL2/3 cells to CD4/CCR5 receptor expressing TZM-bl cells at 4:1 compound to HP23 ratio incubated for 6 hrs by luciferase reporter gene assay
[6] = target: Envelope glycoprotein gp160 (Human immunodeficiency virus 1, UniProt Q6QLK5); test: Inhibition of HIV1 gp41-induced cell-cell fusion between viral envelope expressing human HL2/3 cells to CD4/CCR5 receptor expressing TZM-bl cells after 6 hrs by luciferase assay
Envelope glycoprotein gp160, sequence (Q6QLK5 whole entry, the tested form may be a part): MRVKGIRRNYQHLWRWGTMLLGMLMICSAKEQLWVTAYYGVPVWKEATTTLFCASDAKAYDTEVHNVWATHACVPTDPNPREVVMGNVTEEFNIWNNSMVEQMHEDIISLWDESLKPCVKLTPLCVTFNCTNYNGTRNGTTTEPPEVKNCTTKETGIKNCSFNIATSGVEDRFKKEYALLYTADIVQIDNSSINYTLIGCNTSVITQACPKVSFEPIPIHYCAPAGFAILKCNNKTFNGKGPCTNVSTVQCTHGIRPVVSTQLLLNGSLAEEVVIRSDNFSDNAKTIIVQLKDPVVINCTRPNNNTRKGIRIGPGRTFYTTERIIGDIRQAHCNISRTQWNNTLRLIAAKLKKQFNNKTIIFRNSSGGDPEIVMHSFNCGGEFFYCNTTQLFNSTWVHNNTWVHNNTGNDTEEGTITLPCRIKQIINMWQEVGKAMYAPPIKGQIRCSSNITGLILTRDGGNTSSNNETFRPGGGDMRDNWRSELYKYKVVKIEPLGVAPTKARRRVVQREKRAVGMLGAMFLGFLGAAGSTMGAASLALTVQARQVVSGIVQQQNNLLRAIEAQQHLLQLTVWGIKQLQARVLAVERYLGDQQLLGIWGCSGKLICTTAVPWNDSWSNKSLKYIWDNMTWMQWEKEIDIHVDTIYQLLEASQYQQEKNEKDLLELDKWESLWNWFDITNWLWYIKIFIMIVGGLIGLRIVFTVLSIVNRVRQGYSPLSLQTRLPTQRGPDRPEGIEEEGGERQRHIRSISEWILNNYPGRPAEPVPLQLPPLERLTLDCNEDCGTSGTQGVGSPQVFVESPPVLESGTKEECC

Row | EC50 [1] [nM] | also measured | Compound
1 | 214 | – | CC[C@H](C)[C@H](NC(C)=O)C(=O)N[C@@H](CCC(=O)O)C(=O)N[C@@H](C)C(=O)N[C@@H](CC(C)C)C(=O)N[C@H](C(=O)N[C@@H](CCCNC(=N)N)C(=O)N[C@@H](C)C(=O)N[C@@H](C)C(=O)N[C@H]1CSCc2cccc(c2)CSC[C@@H](C(=O)N[C@@H](CCCCN)C(=O)N[C@@H](CC(N)=O)C(=O)N[C@@H](CCC(=O)O)C(=O)N[C@@H](C)C(=O)N[C@@H](C)C(=O)N[C@@H](CC(C)C)C(=O)N[C@@H](CCCNC(=N)N)C(=O)N[C@@H](CCC(=O)O)C(=O)N[C@@H](CC(C)C)C(N)=O)NC(=O)[C@H](CCC(N)=O)NC(=O)[C@H](CCC(N)=O)NC(=O)[C@H](CCC(=O)O)NC1=O)[C@@H](C)CC (Ac-IEALIRAACEQQCKNEAALREL-NH2; linker 9-13 via mXylylene)
2 | 136 | – | CC[C@H](C)[C@H](NC(C)=O)C(=O)N[C@@H](CCC(=O)O)C(=O)N[C@H]1CSCc2cccc(c2)CSC[C@@H](C(=O)N[C@@H](C)C(=O)N[C@@H](CCC(N)=O)C(=O)N[C@@H](CCC(=O)O)C(=O)N[C@@H](CCC(N)=O)C(=O)N[C@@H](CCC(N)=O)C(=O)N[C@@H](CCC(=O)O)C(=O)N[C@@H](CCCCN)C(=O)N[C@@H](CC(N)=O)C(=O)N[C@@H](CCC(=O)O)C(=O)N[C@@H](C)C(=O)N[C@@H](C)C(=O)N[C@@H](CC(C)C)C(=O)N[C@@H](CCCNC(=N)N)C(=O)N[C@@H](CCC(=O)O)C(=O)N[C@@H](CC(C)C)C(N)=O)NC(=O)[C@H](CCCNC(=N)N)NC(=O)[C@H]([C@@H](C)CC)NC(=O)[C@H](CC(C)C)NC1=O (Ac-IECLIRCAQEQQEKNEAALREL-NH2; linker 3-7 via mXylylene)
3 | 11 | EC50 [2]: 5.3 nM; EC50 [3]: 1.7 nM; EC50 [4]: 11 nM | H-EMTWEEWEKKIEEYTKKIEEILK-OH
4 | 96 | – | CC[C@H](C)[C@H](NC(C)=O)C(=O)N[C@@H](CCC(=O)O)C(=O)N[C@@H](C)C(=O)N[C@@H](CC(C)C)C(=O)N[C@H](C(=O)N[C@H]1CSCc2cccc(c2)CSC[C@@H](C(=O)N[C@@H](CCC(N)=O)C(=O)N[C@@H](CCC(N)=O)C(=O)N[C@@H](CCC(=O)O)C(=O)N[C@@H](CCCCN)C(=O)N[C@@H](CC(N)=O)C(=O)N[C@@H](CCC(=O)O)C(=O)N[C@@H](C)C(=O)N[C@@H](C)C(=O)N[C@@H](CC(C)C)C(=O)N[C@@H](CCCNC(=N)N)C(=O)N[C@@H](CCC(=O)O)C(=O)N[C@@H](CC(C)C)C(N)=O)NC(=O)[C@H](CCC(N)=O)NC(=O)[C@H](C)NC(=O)[C@H](C)NC1=O)[C@@H](C)CC (Ac-IEALICAAQCQQEKNEAALREL-NH2; linker 6-10 via mXylylene)
5 | 147 | – | CC[C@H](C)[C@H](NC(C)=O)C(=O)N[C@H]1CSCc2cccc(c2)CSC[C@@H](C(=O)N[C@@H](C)C(=O)N[C@@H](C)C(=O)N[C@@H](CCC(N)=O)C(=O)N[C@@H](CCC(=O)O)C(=O)N[C@@H](CCC(N)=O)C(=O)N[C@@H](CCC(N)=O)C(=O)N[C@@H](CCC(=O)O)C(=O)N[C@@H](CCCCN)C(=O)N[C@@H](CC(N)=O)C(=O)N[C@@H](CCC(=O)O)C(=O)N[C@@H](C)C(=O)N[C@@H](C)C(=O)N[C@@H](CC(C)C)C(=O)N[C@@H](CCCNC(=N)N)C(=O)N[C@@H](CCC(=O)O)C(=O)N[C@@H](CC(C)C)C(N)=O)NC(=O)[C@H]([C@@H](C)CC)NC(=O)[C@H](CC(C)C)NC(=O)[C@H](C)NC1=O (Ac-ICALICAAQEQQEKNEAALREL-NH2; linker 2-6 via mXylylene)
6 | 22 | – | CC[C@H](C)[C@H](NC(C)=O)C(=O)N[C@@H](CCC(=O)O)C(=O)N[C@@H](C)C(=O)N[C@@H](CC(C)C)C(=O)N[C@H](C(=O)NC1CCSCc2cccc(c2)CSCCC(C(=O)N[C@@H](CCC(N)=O)C(=O)N[C@@H](CCC(N)=O)C(=O)N[C@@H](CCCNC(=N)N)C(=O)N[C@@H](CCCCN)C(=O)N[C@@H](CC(N)=O)C(=O)N[C@@H](CCC(=O)O)C(=O)N[C@@H](CCC(=O)O)C(=O)N[C@@H](C)C(=O)N[C@@H](CC(C)C)C(=O)N[C@@H](CCCNC(=N)N)C(=O)N[C@@H](CCC(=O)O)C(=O)N[C@@H](CC(C)C)C(N)=O)NC(=O)[C@H](CCC(N)=O)NC(=O)[C@H](C)NC(=O)[C@H](C)NC1=O)[C@@H](C)CC (some centres not stated) (Ac-IEALI[ξhCys]AAQ[ξhCys]QQRKNEEALREL-NH2; linker 6-10 via mXylylene)
7 | – | EC50 [5]: 7.1 nM; EC50 [6]: 7.2 nM | CC[C@H](C)[C@H](NC(C)=O)C(=O)N[C@@H](CCC(=O)O)C(=O)N[C@@H](CCC(=O)O)C(=O)N[C@@H](CC(C)C)C(=O)N[C@H](C(=O)NC1CCSCc2cccc(c2)CSCCC(C(=O)N[C@@H](CCC(N)=O)C(=O)N[C@@H](CCC(N)=O)C(=O)N[C@@H](CCCNC(=N)N)C(=O)N[C@@H](CCCCN)C(=O)N[C@@H](CC(N)=O)C(=O)N[C@@H](CCC(=O)O)C(=O)N[C@@H](CCC(=O)O)C(=O)N[C@@H](C)C(=O)N[C@@H](CC(C)C)C(=O)N[C@@H](CCCNC(=N)N)C(=O)N[C@@H](CCC(=O)O)C(=O)N[C@@H](CC(C)C)C(N)=O)NC(=O)[C@H](CCC(N)=O)NC(=O)[C@H](C)NC(=O)[C@H](C)NC1=O)[C@@H](C)CC (some centres not stated) (Ac-IEELI[ξhCys]AAQ[ξhCys]QQRKNEEALREL-NH2; linker 6-10 via mXylylene)
8 | 171 | – | CC[C@H](C)[C@H](NC(C)=O)C(=O)N[C@@H](CCC(=O)O)C(=O)N[C@@H](C)C(=O)N[C@@H](CC(C)C)C(=O)N[C@H](C(=O)N[C@@H](CCCNC(=N)N)C(=O)N[C@@H](C)C(=O)N[C@@H](C)C(=O)N[C@@H](CCC(N)=O)C(=O)N[C@H]1CSCc2cccc(c2)CSC[C@@H](C(=O)N[C@@H](CC(N)=O)C(=O)N[C@@H](CCC(=O)O)C(=O)N[C@@H](C)C(=O)N[C@@H](C)C(=O)N[C@@H](CC(C)C)C(=O)N[C@@H](CCCNC(=N)N)C(=O)N[C@@H](CCC(=O)O)C(=O)N[C@@H](CC(C)C)C(N)=O)NC(=O)[C@H](CCC(=O)O)NC(=O)[C@H](CCC(N)=O)NC(=O)[C@H](CCC(N)=O)NC1=O)[C@@H](C)CC (Ac-IEALIRAAQCQQECNEAALREL-NH2; linker 10-14 via mXylylene)
9 | 132 | – | CC[C@H](C)[C@H](NC(C)=O)C(=O)N[C@@H](CCC(=O)O)C(=O)N[C@@H](C)C(=O)N[C@@H](CC(C)C)C(=O)N[C@H](C(=O)N[C@@H](CCCNC(=N)N)C(=O)N[C@@H](C)C(=O)N[C@@H](C)C(=O)N[C@@H](CCC(N)=O)C(=O)N[C@@H](CCC(=O)O)C(=O)N[C@@H](CCC(N)=O)C(=O)N[C@@H](CCC(N)=O)C(=O)N[C@H]1CSCc2cccc(c2)CSC[C@@H](C(=O)N[C@@H](C)C(=O)N[C@@H](CC(C)C)C(=O)N[C@@H](CCCNC(=N)N)C(=O)N[C@@H](CCC(=O)O)C(=O)N[C@@H](CC(C)C)C(N)=O)NC(=O)[C@H](CCC(=O)O)NC(=O)[C@H](CC(N)=O)NC(=O)[C@H](CCCCN)NC1=O)[C@@H](C)CC (Ac-IEALIRAAQEQQCKNECALREL-NH2; linker 13-17 via mXylylene)
10 | 127 | – | Ac-IEALIRAAQEQQEKNEAALREL-NH2
11 | 34 | – | CC[C@H](C)[C@H](NC(C)=O)C(=O)N[C@@H](CCC(=O)O)C(=O)N[C@@H](C)C(=O)N[C@@H](CC(C)C)C(=O)N[C@H](C(=O)NC1CCSCc2cccc(c2)CSCCC(C(=O)N[C@@H](CCC(N)=O)C(=O)N[C@@H](CCC(N)=O)C(=O)N[C@@H](CCC(=O)O)C(=O)N[C@@H](CCCCN)C(=O)N[C@@H](CC(N)=O)C(=O)N[C@@H](CCC(=O)O)C(=O)N[C@@H](C)C(=O)N[C@@H](C)C(=O)N[C@@H](CC(C)C)C(=O)N[C@@H](CCCNC(=N)N)C(=O)N[C@@H](CCC(=O)O)C(=O)N[C@@H](CC(C)C)C(N)=O)NC(=O)[C@H](CCC(N)=O)NC(=O)[C@H](C)NC(=O)[C@H](C)NC1=O)[C@@H](C)CC (some centres not stated) (Ac-IEALI[ξhCys]AAQ[ξhCys]QQEKNEAALREL-NH2; linker 6-10 via mXylylene)
12 | 123 | – | CC[C@H](C)[C@H](NC(C)=O)C(=O)N[C@@H](CCC(=O)O)C(=O)N[C@@H](C)C(=O)N[C@@H](CC(C)C)C(=O)N[C@H](C(=O)N[C@@H](CCCNC(=N)N)C(=O)N[C@@H](C)C(=O)N[C@@H](C)C(=O)N[C@@H](CCC(N)=O)C(=O)N[C@@H](CCC(=O)O)C(=O)N[C@@H](CCC(N)=O)C(=O)N[C@@H](CCC(N)=O)C(=O)N[C@@H](CCC(=O)O)C(=O)N[C@@H](CCCCN)C(=O)N[C@@H](CC(N)=O)C(=O)N[C@@H](CCC(=O)O)C(=O)N[C@H]1CSCc2cccc(c2)CSC[C@@H](C(=O)N[C@@H](CC(C)C)C(N)=O)NC(=O)[C@H](CCCNC(=N)N)NC(=O)[C@H](CC(C)C)NC(=O)[C@H](C)NC1=O)[C@@H](C)CC (Ac-IEALIRAAQEQQEKNECALRCL-NH2; linker 17-21 via mXylylene)
13 | 166 | – | CC[C@H](C)[C@H](NC(C)=O)C(=O)N[C@@H](CCC(=O)O)C(=O)N[C@@H](C)C(=O)N[C@@H](CC(C)C)C(=O)N[C@H](C(=O)N[C@@H](CCCNC(=N)N)C(=O)N[C@@H](C)C(=O)N[C@@H](C)C(=O)N[C@@H](CCC(N)=O)C(=O)N[C@@H](CCC(=O)O)C(=O)N[C@@H](CCC(N)=O)C(=O)N[C@@H](CCC(N)=O)C(=O)N[C@@H](CCC(=O)O)C(=O)N[C@@H](CCCCN)C(=O)N[C@@H](CC(N)=O)C(=O)N[C@H]1CSCc2cccc(c2)CSC[C@@H](C(=O)N[C@@H](CCC(=O)O)C(=O)N[C@@H](CC(C)C)C(N)=O)NC(=O)[C@H](CC(C)C)NC(=O)[C@H](C)NC(=O)[C@H](C)NC1=O)[C@@H](C)CC (Ac-IEALIRAAQEQQEKNCAALCEL-NH2; linker 16-20 via mXylylene)
